Calls of active or inactive are those of the source.
Assays:
[1] = target: ATP-dependent molecular chaperone HSP82 (Candida albicans (strain WO-1) (Yeast), UniProt C4YTQ8); test: steroid-induced GRE reporter decrease in yeast – S. cerevisiae, luminescence, Hsp90 inhibitor project, dose response (AID 2400); assay type: functional, cell-based;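 also: beta-galactosidase luminescence from glucocorticoid response element reporter as proxy for Hsp90 function; inhibitor potency where signal loss means Hsp90 inhibition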
Chain of ATP-dependent molecular chaperone HSP82 (C4YTQ8 whole entry): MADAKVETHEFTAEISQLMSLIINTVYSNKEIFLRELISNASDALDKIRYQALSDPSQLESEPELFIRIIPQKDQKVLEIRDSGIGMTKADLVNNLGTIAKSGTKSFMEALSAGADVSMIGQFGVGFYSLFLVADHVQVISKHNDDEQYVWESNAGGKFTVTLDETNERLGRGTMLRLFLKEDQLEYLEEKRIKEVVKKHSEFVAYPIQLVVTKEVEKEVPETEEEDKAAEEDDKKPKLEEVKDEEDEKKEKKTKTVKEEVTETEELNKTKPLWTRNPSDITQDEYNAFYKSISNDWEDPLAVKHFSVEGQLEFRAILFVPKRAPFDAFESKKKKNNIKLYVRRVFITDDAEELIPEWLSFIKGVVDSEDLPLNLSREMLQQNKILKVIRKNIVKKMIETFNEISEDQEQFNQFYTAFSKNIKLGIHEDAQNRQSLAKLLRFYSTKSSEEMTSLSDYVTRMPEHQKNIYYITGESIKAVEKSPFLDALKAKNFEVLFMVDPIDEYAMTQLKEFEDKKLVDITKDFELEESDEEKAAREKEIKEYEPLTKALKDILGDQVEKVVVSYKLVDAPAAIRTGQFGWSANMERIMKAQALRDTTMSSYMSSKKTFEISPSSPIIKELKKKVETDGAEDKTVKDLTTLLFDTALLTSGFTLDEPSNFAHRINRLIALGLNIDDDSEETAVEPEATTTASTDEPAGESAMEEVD

[2] = target: Serine/threonine-protein phosphatase (Candida dubliniensis (strain CD36 / CBS 7987 / NCPF 3949 / NRRLY-17841) (Yeast), UniProt B9W6M3); test: blockers of CaCl2-induced CDRE-lacZ signaling – S. cerevisiae, luminescence, secondary, dose response (AID 2388); assay type: functional, cell-based;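 also: yeast reporter cells carrying a calcineurin-responsive lacZ construct stimulated with calcium chloride; luminescent beta-galactosidase reporter signal in whole cells rather than isolated phosphatase activity; potency for inhibition where a drop in reporter signal means calcineurin blockade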
Chain of Serine/threonine-protein phosphatase (B9W6M3 whole entry): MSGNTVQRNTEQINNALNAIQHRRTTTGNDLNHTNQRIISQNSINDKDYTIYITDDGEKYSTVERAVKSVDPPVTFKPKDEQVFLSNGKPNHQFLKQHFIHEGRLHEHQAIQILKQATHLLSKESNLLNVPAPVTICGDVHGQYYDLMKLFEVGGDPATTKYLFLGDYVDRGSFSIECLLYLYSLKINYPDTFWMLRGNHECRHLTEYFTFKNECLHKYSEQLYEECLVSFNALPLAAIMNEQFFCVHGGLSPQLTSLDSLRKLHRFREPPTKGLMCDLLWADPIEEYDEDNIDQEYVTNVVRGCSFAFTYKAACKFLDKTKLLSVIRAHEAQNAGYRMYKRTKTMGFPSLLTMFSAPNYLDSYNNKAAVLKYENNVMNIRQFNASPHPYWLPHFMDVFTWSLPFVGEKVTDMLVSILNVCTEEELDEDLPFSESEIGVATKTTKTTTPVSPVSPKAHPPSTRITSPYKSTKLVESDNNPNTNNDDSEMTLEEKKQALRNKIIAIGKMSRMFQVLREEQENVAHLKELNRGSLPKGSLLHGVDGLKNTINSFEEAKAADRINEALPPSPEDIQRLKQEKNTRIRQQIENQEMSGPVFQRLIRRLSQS

Cytochrome P450 2C19 = Cytochrome P450 2C19 (Homo sapiens, UniProt P33261); test: Cytochrome panel assay with activity outcomes. Panel member name: p450-cyp2c19 Compounds with AC50 equal or less than 10 uM are considered active; assay type: functional; settings: read-out: AC50
Chain of Cytochrome P450 2C19 (P33261 whole entry): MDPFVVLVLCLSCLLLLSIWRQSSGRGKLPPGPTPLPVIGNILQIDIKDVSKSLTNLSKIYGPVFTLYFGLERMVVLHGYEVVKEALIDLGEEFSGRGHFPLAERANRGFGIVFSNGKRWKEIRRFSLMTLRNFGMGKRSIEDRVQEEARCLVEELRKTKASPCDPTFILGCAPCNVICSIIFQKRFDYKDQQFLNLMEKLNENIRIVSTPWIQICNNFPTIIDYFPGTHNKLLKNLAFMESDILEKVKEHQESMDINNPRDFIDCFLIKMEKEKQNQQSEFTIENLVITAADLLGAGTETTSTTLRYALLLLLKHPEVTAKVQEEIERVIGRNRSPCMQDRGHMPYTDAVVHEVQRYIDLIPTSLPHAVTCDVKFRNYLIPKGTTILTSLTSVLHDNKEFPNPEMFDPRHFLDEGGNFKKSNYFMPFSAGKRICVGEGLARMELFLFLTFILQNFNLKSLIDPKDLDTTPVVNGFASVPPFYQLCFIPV

[3] = target: 5-hydroxytryptamine receptor 5A (Homo sapiens, UniProt P47898); test: Counterscreen for agonists of OPRM1-OPRD1 heterodimerization: luminescence-based cell-based high throughput dose response assay to identify agonists of 5-hydroxytryptamine (serotonin) 5A receptor (HTR5A). [Related pubchem assays (depositor defined):AID504326, AID504355, AID504692, AID504904, AID504905]; assay type: functional
Chain of 5-hydroxytryptamine receptor 5A (P47898 whole entry): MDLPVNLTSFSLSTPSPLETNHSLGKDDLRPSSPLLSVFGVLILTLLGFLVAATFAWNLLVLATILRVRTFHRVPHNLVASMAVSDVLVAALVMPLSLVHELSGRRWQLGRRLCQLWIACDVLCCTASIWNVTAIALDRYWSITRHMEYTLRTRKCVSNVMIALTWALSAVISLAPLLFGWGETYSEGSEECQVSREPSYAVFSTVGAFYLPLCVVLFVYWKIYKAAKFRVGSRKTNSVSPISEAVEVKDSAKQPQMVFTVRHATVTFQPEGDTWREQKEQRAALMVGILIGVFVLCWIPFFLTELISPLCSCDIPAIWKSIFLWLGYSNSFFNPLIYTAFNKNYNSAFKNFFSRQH

[4] = target: T1, Short transient receptor potential channel 4 (Mus musculus, UniProt Q9QUQ5); test: block of DAMGO-driven TRPC4 calcium entry – cell-based, HEK293 TRPC4/mu-opioid, Fluo-4 calcium, dose response (AID 434942); assay type: functional;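 also: potency of inhibitors blocking the TRPC4 calcium response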
T1 sequence (Q9QUQ5 whole entry): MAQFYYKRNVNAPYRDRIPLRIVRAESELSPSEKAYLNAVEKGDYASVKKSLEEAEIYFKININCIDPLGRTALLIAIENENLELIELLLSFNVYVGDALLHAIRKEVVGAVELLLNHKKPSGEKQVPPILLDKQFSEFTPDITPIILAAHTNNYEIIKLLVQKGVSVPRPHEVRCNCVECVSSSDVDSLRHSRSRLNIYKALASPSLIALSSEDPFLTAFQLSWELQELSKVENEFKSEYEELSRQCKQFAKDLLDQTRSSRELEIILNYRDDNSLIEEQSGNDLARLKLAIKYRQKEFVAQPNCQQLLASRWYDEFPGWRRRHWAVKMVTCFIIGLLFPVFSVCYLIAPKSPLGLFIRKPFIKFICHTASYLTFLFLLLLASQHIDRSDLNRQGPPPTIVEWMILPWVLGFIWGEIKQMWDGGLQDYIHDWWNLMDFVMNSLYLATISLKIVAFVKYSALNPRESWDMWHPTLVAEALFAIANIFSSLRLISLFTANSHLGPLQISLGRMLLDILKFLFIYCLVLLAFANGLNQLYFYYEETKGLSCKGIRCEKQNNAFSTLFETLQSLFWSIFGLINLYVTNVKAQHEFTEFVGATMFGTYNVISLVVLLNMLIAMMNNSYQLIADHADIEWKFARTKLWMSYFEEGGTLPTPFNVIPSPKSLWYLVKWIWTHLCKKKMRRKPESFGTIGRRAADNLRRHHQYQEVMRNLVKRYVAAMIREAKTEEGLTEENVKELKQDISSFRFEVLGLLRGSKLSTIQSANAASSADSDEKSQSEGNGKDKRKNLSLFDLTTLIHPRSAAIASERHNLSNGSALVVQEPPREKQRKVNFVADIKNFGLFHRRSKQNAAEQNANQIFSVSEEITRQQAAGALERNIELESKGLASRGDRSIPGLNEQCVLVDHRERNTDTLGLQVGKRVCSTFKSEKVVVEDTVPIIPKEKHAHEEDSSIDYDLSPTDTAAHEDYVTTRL

[5] = target: T1, Short transient receptor potential channel 4; test: calcium entry via TRPC4 opening agents – cell-based, HEK293 TRPC4/mu-opioid, Fluo-4 calcium, dose response (AID 434937); assay type: functional
Cytochrome P450 3A4 = Cytochrome P450 3A4 (Homo sapiens, UniProt P08684);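 also: CYP3A4 tested as one member of a cytochrome P450 panel screen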
Chain of Cytochrome P450 3A4 (P08684 whole entry): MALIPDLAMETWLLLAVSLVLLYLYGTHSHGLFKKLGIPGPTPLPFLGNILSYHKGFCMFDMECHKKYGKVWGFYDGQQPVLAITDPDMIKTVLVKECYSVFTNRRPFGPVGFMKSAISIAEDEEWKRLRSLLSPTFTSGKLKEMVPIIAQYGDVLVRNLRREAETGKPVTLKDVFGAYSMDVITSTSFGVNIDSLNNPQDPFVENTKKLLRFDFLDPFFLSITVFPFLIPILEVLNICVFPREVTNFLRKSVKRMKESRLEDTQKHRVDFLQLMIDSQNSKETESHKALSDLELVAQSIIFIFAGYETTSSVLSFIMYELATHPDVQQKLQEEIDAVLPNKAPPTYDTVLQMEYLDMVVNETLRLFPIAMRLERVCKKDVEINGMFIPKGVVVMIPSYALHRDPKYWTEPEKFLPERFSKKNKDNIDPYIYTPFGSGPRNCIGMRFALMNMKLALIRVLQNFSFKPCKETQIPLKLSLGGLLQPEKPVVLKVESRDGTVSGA

[6] = target: Delta-type opioid receptor (Homo sapiens, UniProt P41143); test: Counterscreen for agonists of heterodimerization of the mu 1 (OPRM1) and delta 1 (OPRD1) opioid receptors: Luminescence-based cell-based high throughput dose response assay to identify agonists of OPRD1 homodimerization. [Related pubchem assays (depositor defined):AID504326, AID504355, AID504692, AID504904, AID504905]; assay type: functional
Chain of Delta-type opioid receptor (P41143 whole entry): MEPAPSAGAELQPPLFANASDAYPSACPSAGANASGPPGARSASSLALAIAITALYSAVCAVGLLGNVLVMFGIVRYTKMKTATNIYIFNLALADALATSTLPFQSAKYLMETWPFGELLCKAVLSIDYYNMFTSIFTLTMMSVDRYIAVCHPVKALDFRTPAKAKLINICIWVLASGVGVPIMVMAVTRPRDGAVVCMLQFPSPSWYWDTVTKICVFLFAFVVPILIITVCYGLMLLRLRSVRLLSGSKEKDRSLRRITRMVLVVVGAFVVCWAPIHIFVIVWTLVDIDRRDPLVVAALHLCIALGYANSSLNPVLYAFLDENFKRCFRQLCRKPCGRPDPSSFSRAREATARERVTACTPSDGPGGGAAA

Mu-type opioid receptor = Mu-type opioid receptor (Homo sapiens, UniProt P35372); test: Counterscreen for agonists of heterodimerization of the mu 1 (OPRM1) and delta 1 (OPRD1) opioid receptors: Luminescence-based cell-based high throughput dose response assay to identify agonists of OPRM1 homodimerization.; assay type: functional;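 also: U2OS cells expressing OPRM1 and beta-arrestin as split beta-galactosidase partners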
Chain of Mu-type opioid receptor (P35372 whole entry): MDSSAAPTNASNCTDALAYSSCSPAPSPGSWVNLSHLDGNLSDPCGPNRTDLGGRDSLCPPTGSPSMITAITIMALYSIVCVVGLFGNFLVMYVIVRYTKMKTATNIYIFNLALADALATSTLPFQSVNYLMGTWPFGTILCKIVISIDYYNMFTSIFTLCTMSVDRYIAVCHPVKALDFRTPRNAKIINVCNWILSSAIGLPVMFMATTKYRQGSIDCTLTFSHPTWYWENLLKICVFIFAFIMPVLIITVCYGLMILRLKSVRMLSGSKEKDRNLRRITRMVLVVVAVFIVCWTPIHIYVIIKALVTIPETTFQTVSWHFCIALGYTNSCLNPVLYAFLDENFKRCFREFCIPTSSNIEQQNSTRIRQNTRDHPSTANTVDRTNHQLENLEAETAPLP

Protein RecA = target: T2, Protein RecA (Mycobacterium tuberculosis, UniProt P9WHJ3); test: Fluorescence Cell-Free Homogeneous Dose Retest to Identify Inhibitors of RecA-Intein Splicing Activity. [Related pubchem assays (depositor defined):AID2097, AID2223, AID489010, AID492950]; assay type: functional
T2 sequence (P9WHJ3 whole entry): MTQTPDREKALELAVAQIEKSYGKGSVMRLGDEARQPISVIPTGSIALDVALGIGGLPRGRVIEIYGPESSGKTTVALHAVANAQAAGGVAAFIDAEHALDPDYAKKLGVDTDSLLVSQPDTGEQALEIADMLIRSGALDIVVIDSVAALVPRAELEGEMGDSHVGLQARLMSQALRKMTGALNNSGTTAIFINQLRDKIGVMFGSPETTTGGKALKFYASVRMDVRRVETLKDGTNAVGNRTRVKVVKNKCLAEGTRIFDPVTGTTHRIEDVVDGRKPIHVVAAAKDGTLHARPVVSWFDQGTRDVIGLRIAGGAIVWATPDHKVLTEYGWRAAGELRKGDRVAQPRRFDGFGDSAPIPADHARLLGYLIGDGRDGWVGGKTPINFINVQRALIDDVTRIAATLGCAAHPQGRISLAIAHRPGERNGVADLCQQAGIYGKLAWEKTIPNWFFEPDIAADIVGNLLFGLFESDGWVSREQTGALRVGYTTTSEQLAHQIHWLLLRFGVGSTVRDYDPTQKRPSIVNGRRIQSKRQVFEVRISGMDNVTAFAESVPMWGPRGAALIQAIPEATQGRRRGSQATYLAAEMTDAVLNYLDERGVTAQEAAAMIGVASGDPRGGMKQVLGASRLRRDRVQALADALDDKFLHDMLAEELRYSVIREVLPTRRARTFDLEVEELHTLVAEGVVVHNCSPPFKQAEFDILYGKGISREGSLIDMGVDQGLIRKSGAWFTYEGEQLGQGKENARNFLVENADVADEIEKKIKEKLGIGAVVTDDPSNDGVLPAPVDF

[7] = target: T3, Heat shock factor protein 1 (Mus musculus, UniProt P38532); test: decrease of HSF1-responsive luciferase luminescence – cell-based, NIH3T3, dose retest, confirmation (AID 2382); assay type: functional;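 also: NIH3T3 fibroblasts with HSF1-driven luciferase reporter stressed by proteasome inhibitor MG132; luminescence from HSF1-driven luciferase expression after 8 hours of MG132 stress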
T3 sequence (P38532 whole entry): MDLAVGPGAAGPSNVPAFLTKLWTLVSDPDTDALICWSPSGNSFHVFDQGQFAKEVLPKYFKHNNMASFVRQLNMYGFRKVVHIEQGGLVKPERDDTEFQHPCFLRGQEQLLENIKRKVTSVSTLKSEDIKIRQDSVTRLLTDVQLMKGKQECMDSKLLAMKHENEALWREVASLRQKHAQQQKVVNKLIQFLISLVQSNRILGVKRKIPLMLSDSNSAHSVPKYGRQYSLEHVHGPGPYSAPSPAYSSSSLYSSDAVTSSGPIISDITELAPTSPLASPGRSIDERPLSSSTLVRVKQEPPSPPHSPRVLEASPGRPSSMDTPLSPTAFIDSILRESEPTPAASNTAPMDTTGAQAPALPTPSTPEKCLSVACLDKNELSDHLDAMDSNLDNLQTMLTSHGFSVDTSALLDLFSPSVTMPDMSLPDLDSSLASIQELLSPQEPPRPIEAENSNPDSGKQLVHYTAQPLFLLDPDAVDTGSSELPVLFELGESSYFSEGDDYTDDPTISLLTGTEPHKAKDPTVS

[8] = NIH3T3 cell viability loss – ATP luminescence, mouse fibroblasts, counter-screen, dose response (AID 2010); assay type: functional, cell-based;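 also: cells exposed to compound for about 90 hours before reading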
Estrogen receptor beta = Estrogen receptor beta (Homo sapiens, UniProt Q92731); test: blockers of SRC-3 recruitment to ERβ – biochemical, ELISA, streptavidin-HRP readout, orthogonal assay, confirmation (AID 1060)
Chain of Estrogen receptor beta (Q92731 whole entry): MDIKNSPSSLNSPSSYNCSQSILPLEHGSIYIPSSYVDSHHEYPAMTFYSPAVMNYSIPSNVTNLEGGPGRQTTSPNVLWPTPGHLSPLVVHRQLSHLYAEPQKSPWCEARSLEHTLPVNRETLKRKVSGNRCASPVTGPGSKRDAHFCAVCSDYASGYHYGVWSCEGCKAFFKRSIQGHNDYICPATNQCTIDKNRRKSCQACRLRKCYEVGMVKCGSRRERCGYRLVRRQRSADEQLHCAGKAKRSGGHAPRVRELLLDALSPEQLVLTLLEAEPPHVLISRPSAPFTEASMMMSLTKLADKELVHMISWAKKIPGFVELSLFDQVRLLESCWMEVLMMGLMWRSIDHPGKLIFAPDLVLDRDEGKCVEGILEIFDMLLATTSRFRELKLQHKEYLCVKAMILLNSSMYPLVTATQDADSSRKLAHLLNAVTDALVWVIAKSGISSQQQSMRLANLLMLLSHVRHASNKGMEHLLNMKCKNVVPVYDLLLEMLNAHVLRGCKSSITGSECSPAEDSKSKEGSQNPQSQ

[9] = target: T4, Replicative DNA helicase DnaB (Mycobacterium tuberculosis, UniProt P9WMR3); test: DnaB intein splicing inhibitors, dose response, biochemical, cell-free fluorescence (AID 449749); assay type: functional
T4 sequence (P9WMR3 whole entry): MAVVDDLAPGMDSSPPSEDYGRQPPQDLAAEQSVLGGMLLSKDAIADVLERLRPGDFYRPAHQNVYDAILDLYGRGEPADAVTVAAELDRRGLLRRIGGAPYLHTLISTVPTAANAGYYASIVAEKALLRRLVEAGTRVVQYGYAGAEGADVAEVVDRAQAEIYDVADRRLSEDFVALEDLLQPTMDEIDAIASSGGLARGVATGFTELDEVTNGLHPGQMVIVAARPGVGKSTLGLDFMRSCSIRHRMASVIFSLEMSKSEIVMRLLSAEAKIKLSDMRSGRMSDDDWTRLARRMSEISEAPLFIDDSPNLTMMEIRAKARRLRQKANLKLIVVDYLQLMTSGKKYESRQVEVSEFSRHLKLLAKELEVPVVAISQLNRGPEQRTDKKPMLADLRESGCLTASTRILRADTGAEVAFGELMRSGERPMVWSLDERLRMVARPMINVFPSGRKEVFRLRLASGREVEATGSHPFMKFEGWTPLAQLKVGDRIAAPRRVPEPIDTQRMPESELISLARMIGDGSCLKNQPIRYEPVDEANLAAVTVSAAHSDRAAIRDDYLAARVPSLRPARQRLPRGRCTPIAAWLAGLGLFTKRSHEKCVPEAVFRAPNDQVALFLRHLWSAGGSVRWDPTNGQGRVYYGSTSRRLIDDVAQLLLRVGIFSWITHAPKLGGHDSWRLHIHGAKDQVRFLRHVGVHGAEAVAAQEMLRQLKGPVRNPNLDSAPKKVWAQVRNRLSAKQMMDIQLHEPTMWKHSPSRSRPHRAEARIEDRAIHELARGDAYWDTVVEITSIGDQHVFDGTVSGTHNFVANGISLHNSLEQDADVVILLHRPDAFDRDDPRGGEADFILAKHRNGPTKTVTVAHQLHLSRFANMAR

[10] = NIH-3T3 fibroblast cytotoxicity, dose response, cytotoxicity control, cell-based, fluorescence, Alamar Blue, secondary assay (AID 2327); assay type: functional;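 also: NIH-3T3 mouse fibroblasts cultured with fluconazole at 8 µg/mL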
[11] = fluconazole-exposed Candida albicans growth modulators – fluorescence, retest, confirmation (AID 2467); assay type: functional, cell-based
[12] = Trypanosoma cruzi growth suppression in host cells – NIH3T3 host cells, beta-gal luminescence, confirmation (AID 2044); assay type: functional, cell-based;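 also: intracellular parasites grown in NIH/3T3 mouse fibroblasts as host cells; luminescent beta-galactosidase reporter signal from transgenic T. cruzi replicating inside host cells; inhibitors lower the luminescence signal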
Nonstructural protein 1 = Nonstructural protein 1 (Influenza A virus, UniProt Q194T2); assay type: functional, Influenza A virus (A/California/07/2009(H1N1))
Chain of Nonstructural protein 1 (Q194T2 whole entry): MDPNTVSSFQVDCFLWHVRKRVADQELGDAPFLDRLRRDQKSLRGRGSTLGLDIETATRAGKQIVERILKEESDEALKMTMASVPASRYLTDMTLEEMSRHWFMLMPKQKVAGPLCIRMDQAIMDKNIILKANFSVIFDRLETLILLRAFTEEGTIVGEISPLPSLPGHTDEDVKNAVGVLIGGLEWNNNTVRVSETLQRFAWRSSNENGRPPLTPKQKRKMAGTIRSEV

[13] = viability of HCT116 lacking mutant beta-catenin – cell-based, human colon tumor, dose response (AID 1045); assay type: functional;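 also: HCT116 colon tumor cells with beta catenin knocked out; cells exposed to compound for 60 hours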
[14] = viability of PTEN-deleted HCT116 cells – cell-based, HCT116 PTEN knockout, dose response (AID 1047); assay type: functional;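 also: HCT116 colon tumor cells with PTEN knocked out; cells exposed to compound for 60 hours before readout; potency for loss of cell viability measured by luminescence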

Structure (SMILES)	EC50 [1]	EC50 [2]	AC50 (Cytochrome P450 2C19)	EC50 [3]	EC50 [4]	EC50 [5]	AC50 (Cytochrome P450 3A4)	EC50 [6]	EC50 (Mu-type opioid receptor)	EC50 (Protein RecA)	EC50 [7]	EC50 [8]	IC50 (Estrogen receptor beta)	AC50 [9]	EC50 [10]	EC50 [11]	EC50 [12]	IC50 (Nonstructural protein 1)	EC50 [13]	EC50 [14]
CCn1c(Sc2nc(C)nc3scc(-c4cccs4)c23)n[nH]c1=O	30.7 µM (active)	> 180 µM (inactive)	–	–	–	–	–	–	–	–	–	–	–	–	–	–	–	–	–	–
CN1C2C=C(N(CCc3c[nH]c4ccccc34)C(=O)c3ccc(Cl)cc3)CC1CC2 (configuration not stated)	–	–	5.01 µM (inconclusive)	> 92.5 µM (inactive)	0.211 µM (active)	0.596 µM (active)	17.8 µM (inconclusive)	> 92.5 µM (inactive)	47.9 µM (inactive)	–	–	–	–	–	–	–	–	–	–	–
CCN1CCN(C(c2cccnc2)c2cc(Cl)c3cccnc3c2O)CC1 (configuration not stated)	> 150 µM (inactive)	> 180 µM (inactive)	–	–	–	–	–	–	–	1.8 µM (active)	> 195 µM (not active)	> 60 µM (not active)	2.39 µM (not active)	> 380 µM (inactive)	> 150 µM (inactive)	0.916 µM (active)	2.13 µM (active)	17.8 µM (active)	15.1 µM (active)	12.7 µM (active)

From ChEMBL document CHEMBL1201862, “PubChem BioAssay data set” (2004)
